In patent publication US20110171144A1, “Functional Micelles for Hard Tissue Targeted Delivery of Chemicals” (priority 2008, published 2011):
In brackets after ≈: the same amount, converted by molar mass.

How the values were obtained:
[1] = Binding potential and rate of bone-targeting micelles on hydroxyapatite (HA)
Method: The solvent was evaporated in vacuum to yield a polymeric film on the wall of the flask. The thin polymeric film formed was then hydrated with a 10 mM phosphate buffered saline solution (PBS, pH 7.4) at 50° C. to set the micelles. The micelles were prepared as the method mentioned above for bone-targeting micelles: 0.9% […], 0.1% ALN-[…], 0.02% RB-[…]; for controls: 1% […], 0.02% RB-[…]). […] The mixtures were allowed to be gently agitated for 1, 5, 10, or 30 minutes at room temperature. […] The spectra of the supernatant was recorded on a UV-Visible spectrophotometer and compared with that of the initial micelle solution. Micelle containing RB-[…] but no ALN-[…] and RB were used as controls in this experiment.

S. Mutans UA159 = test: In vitro inhibition of S. Mutans biofilm growth on HA discs; assay type: cell-based, Streptococcus Mutans; conditions: 48 hours incubation, compared to controls, FIG. 3
Method: S. Mutans UA159 was used in this study. S. Mutans were stored frozen at −80° C. A fresh culture was prepared before each experiment. A single colony of S. Mutans was inoculated into 3 mL of THYE (Todd-Hewitt Yeast Extract) medium and allow to growth statically overnight at 37° C. with 5% CO2. The overnight culture was diluted to a density of 5×10^4 CFU/ml with chemically defined biofilm media (CDM) (Biswas et al. (2007) J. Bacteriol., 189:6521-6531).
Autoclaved HA discs (7 mm×1.8 mm) were incubated with different micelle solutions, a farnesol solution in ethanol, or CDM in a 24-well plate for 1 hour to achieve maximum loading. The discs were then removed from the wells and vortex washed twice with saline for 10 seconds. The discs were subsequently washed with culture media to remove unbounded micelle. For the farnesol ethanol solution group, discs were washed twice with ethanol and then washed with saline. The HA discs were then transferred to 1 mL of diluted S. Mutans, and cultured statically for 48 hours to allow biofilm growth at 37° C. with 5% CO2.
On day three post bacteria inoculation, the HA discs were dip-washed 3 times with THYE media to remove loosely attached bacteria and then placed in 1 mL of THYE media. The surfaces of HA discs were gently scraped with a sterile spatula to harvest adherent cells. […]

[2] = Hornby et al. (2001); cited from earlier work

## CCN(CC)c1ccc2c(-c3ccccc3C(=O)O)c3ccc(=[N+](CC)CC)cc-3oc2c1.[Cl-] [RB, Rhodamine B]
[1]; 30 minutes incubation, FIG. 4A
  binding to HA (in words): slightly bound

## Pluronic® 123-alendronate conjugate [ALN-P123]
[1]; 10 minutes incubation, FIG. 4B
  bound to HA: 45%
[1]; 30 minutes incubation
  bound to HA (ultimate binding equilibrium): 55%

## CC(C)=CCCC(C)=CCCC(C)=CCO [farnesol, 3,7,11-trimethyl-2,6,10-dodecatrien-1-ol]
S. Mutans UA159
  inhibition of S. Mutans biofilm formation on HA discs: did not show inhibition
[2]
  water solubility: 1200 µM (≈ 267 µg/mL)
